Results reported in patent US20230203041A1, “ANTAGONISTS OF THE ADENOSINE A2A RECEPTOR” (AdoRx Therapeutics Limited, priority 2020, published 2023).

Tests used:
[1] = target: T1, human Adenosine A1 receptor (Homo sapiens, UniProt P30542); experiment: Adenosine receptor TR-FRET binding assay (CA200645 displacement), A1
T1 sequence (P30542 1-326): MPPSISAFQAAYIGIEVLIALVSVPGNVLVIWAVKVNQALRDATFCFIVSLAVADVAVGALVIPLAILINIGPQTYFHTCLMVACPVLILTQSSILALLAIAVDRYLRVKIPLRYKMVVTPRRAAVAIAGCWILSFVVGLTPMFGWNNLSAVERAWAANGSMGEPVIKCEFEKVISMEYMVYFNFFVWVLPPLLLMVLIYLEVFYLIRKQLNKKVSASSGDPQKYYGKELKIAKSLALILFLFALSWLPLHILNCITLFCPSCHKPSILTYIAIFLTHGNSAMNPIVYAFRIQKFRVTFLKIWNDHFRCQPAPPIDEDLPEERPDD

[2] = target: T2, human Adenosine A2b receptor (Homo sapiens, UniProt P29275); experiment: Adenosine receptor TR-FRET binding assay (CA200645 displacement), A2b; conditions: 30 nM CA200645, CHO cell membranes, 2 hours at room temperature
T2 construct: expressed in transfected cells; host or cells: CHO cell membranes
T2 sequence (P29275 1-332): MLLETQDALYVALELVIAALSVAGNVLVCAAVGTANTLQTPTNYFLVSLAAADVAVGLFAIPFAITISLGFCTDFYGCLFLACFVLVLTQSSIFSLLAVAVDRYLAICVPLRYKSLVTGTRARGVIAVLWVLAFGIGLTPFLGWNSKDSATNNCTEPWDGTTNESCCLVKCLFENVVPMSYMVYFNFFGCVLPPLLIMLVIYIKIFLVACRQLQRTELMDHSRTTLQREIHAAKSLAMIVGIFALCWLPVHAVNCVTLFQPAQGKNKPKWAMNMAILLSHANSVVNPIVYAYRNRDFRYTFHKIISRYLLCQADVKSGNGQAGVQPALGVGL

[3] = target: T3, human Adenosine A2a receptor (Homo sapiens, UniProt P29274); experiment: Adenosine receptor TR-FRET binding assay (CA200645 displacement), A2a; conditions: 100 nM CA200645, CHO cell membranes, 2 hours at room temperature
T3 construct: expressed in transfected cells; host or cells: CHO cell membranes
T3 sequence (P29274 whole entry): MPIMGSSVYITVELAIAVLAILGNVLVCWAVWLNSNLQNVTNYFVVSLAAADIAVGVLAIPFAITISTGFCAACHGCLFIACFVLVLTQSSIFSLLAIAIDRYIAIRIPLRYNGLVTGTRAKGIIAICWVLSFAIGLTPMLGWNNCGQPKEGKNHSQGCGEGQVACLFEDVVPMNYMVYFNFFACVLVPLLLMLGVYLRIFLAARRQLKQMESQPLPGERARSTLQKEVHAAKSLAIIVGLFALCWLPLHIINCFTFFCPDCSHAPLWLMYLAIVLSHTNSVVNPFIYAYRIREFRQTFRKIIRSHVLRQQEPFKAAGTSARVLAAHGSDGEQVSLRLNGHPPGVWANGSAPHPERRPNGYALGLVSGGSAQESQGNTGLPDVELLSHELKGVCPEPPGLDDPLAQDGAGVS

[4] = target: T4, human Adenosine A3 receptor (Homo sapiens, UniProt P0DMS8); experiment: Adenosine receptor TR-FRET binding assay (CA200645 displacement), A3
T4 sequence (P0DMS8 1-318): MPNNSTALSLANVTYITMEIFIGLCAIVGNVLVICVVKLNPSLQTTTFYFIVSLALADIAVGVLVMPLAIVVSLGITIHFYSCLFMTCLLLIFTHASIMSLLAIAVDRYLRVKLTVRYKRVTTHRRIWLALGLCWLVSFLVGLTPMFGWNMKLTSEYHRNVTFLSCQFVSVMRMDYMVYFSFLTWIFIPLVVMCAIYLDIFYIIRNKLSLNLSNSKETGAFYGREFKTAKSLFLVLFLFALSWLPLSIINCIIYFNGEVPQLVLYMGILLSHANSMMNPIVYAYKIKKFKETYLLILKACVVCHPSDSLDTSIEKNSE

Row | Ki [1] [nM] | Ki [2] [nM] | Ki [3] [nM] | Ki [4] [nM] | Compound
1 | 333 | 57 | 2.1 | > 1000 | Cc1cc(-c2c(-c3cccc(C#N)c3)nn3ccc(C(=O)N[C@@H]4COC[C@H]4O)nc23)cc(C)n1 [Example 92.31]
2 | 522 | 163 | 38.5 | > 1000 | Cc1cc(-c2c(-c3cccc(C#N)c3)nn3ccc(NC[C@@H]4COCCN4)nc23)cc(Cl)n1 [Example 4.1]
3 | 133 | 1100 | 33.2 | 1740 | CC(C)(C)OC(=O)N1CCO[C@H](CNc2ccn3nc(-c4ccco4)c(C#N)c3n2)C1 [Example 37.5]
4 | 172 | 2220 | 147 | 3960 | N#Cc1c(-c2ccco2)nn2ccc(N)nc12 [Example 49, 5-Amino-2-(2-furyl)pyrazolo[1,5-a]pyrimidine-3-carbonitrile]
5 | 181 | 19 | 4.3 | > 1000 | Cc1cc(-c2c(-c3cccc(C#N)c3)nn3ccc(C(=O)NCC4(N)CC(F)(F)C4)nc23)cc(Cl)n1 [Example 7.10, N-[(1-Amino-3,3-difluoro-cyclobutyl)methyl]-3-(2-chloro-6-methyl-4-pyridyl)-2-(3-cyanophenyl)pyrazolo[1,5-a]pyrimidine-5-carboxamide]
6 | 29 | 63 | 35.7 | 536 | Cc1cc(-c2c(-c3ccc(F)cc3)nn3ccc(N)nc23)cc(Cl)n1 [Example 88, 3-(2-Chloro-6-methyl-4-pyridyl)-2-(4-fluorophenyl)pyrazolo[1,5-a]pyrimidin-5-amine]
7 | 1510 | 13 | 5 | > 1000 | Cc1cc(-c2c(-c3cccc(C#N)c3)nn3ccc(C(=O)NCC4(C)NC(=O)NC4=O)nc23)c(F)c(C)n1 (centres unmarked) [Example 101, 2-(3-Cyanophenyl)-3-(3-fluoro-2,6-dimethyl-4-pyridyl)-N-[(4-methyl-2,5-dioxo-imidazolidin-4-yl)methyl]pyrazolo[1,5-a]pyrimidine-5-carboxamide]
8 | 438 | 17 | 9.2 | > 1000 | Cc1cc(-c2c(-c3cccc(C#N)c3)nn3ccc(C(=O)NCC4CNC(=O)CO4)nc23)cc(C)n1 (centres unmarked) [Example 92.5]
9 | 776 | 378 | 127 | > 1000 | Cc1cc(-c2c(-c3cccc(C#N)c3)nn3ccc(N4CCC5(CC4)CNC(=O)C5)nc23)cc(C)n1 [Example 105, 3-[3-(2,6-Dimethyl-4-pyridyl)-5-(3-oxo-2,8-diazaspiro[4.5]decan-8-yl)pyrazolo[1,5-a]pyrimidin-2-yl]benzonitrile]
10 | 34 | 129 | 48.6 | 174 | Cn1nccc1-c1c(-c2ccco2)nn2ccc(NCc3ccccc3)nc12 [Example 53.1, N-benzyl-2-(2-furyl)-3-(2-methylpyrazol-3-yl)pyrazolo[1,5-a]pyrimidin-5-amine]
11 | 87 | 12 | 1 | > 1000 | Cc1cc(-c2c(-c3cccc(C#N)c3)nn3ccc(N[C@@H]4CCOC4)nc23)cc(Cl)n1 [Example 2.6]
12 | 703 | 25 | 22.1 | > 1000 | Cc1cc(-c2c(-c3cccc(C#N)c3)nn3ccc(C(=O)NC4CCNCC4)nc23)cc(Cl)n1 [Example 7.15, 3-(2-Chloro-6-methyl-4-pyridyl)-2-(3-cyanophenyl)-N-(4-piperidyl)pyrazolo[1,5-a]pyrimidine-5-carboxamide]
13 | 210 | 16 | 6.6 | > 1000 | Cc1cc(-c2c(-c3cccc(C#N)c3)nn3ccc(C(=O)NC[C@H]4CNC(=O)C4)nc23)cc(C)n1 [Example 92.27]
14 | 160 | 10 | 2.4 | > 1000 | Cc1cc(-c2c(-c3cccc(C#N)c3)nn3ccc(C(=O)NC4(C)CCNC4)nc23)cc(Cl)n1 (centres unmarked) [Example 7.8, 3-(2-Chloro-6-methyl-4-pyridyl)-2-(3-cyanophenyl)-N-(3-methylpyrrolidin-3-yl)pyrazolo[1,5-a]pyrimidine-5-carboxamide]
15 | 1390 | 1310 | 71.4 | > 1000 | Cc1cc(-c2c(-c3cccc(C#N)c3)nn3ccc(NCC(C)(C)C(=O)O)nc23)cc(Cl)n1 [Example 2.13]
16 | 158 | 3 | 27.6 | > 1000 | Cc1cc(-c2c(-c3cccc(C#N)c3)nn3ccc(C(=O)N4CCC5(CC4)NC(=O)NC5=O)nc23)cc(C)n1 [Example 92.7]
17 | 1840 | 80 | 12.3 | > 1000 | Cc1cc(-c2c(-c3cccc(C#N)c3)nn3ccc(C(=N)NC(C)(C)C)nc23)cc(Cl)n1 [Example 90, N-tert-Butyl-3-(2-chloro-6-methyl-4-pyridyl)-2-(3-cyanophenyl)pyrazolo [1,5-a]pyrimidine-5-carboxamidine]
18 | 4 | 2 | 1.8 | > 1000 | Cc1cc(-c2c(-c3cccc(C#N)c3)nn3ccc(N)nc23)cc(C)[n+]1[O-] [Example 27, 3-[5-Amino-3-(2,6-dimethyl-1-oxido-pyridin-1-ium-4-yl)pyrazolo[1,5-a]pyrimidin-2-yl]benzonitrile]
19 | 44 | 12 | 7.2 |  | Cc1cc(-c2c(-c3cccc(C#N)c3)nn3ccc(N)nc23)cc(C#N)n1 [Example 26.3, 4-[5-Amino-2-(3-cyanophenyl)pyrazolo[1,5-a]pyrimidin-3-yl]-6-methyl-pyridine-2-carbonitrile]
20 | 2540 | 2430 | 116 |  | O=C(O)c1c(-c2ccco2)nn2ccc(NCc3ccccc3)nc12 [Example 76, 5-(Benzylamino)-2-(2-furyl)pyrazolo[1,5-a]pyrimidine-3-carboxylic acid]
21 | 16 | 4 | 0.3 |  | Cc1cc(-c2c(-c3cccc(C#N)c3)nn3ccc(NCCO)nc23)cc(Cl)n1 [Example 19, 3-[3-(2-Chloro-6-methyl-4-pyridyl)-5-(2-hydroxyethylamino)pyrazolo[1,5-a]pyrimidin-2-yl]benzonitrile]
22 | 2380 | 1510 |  |  | Cn1nccc1-c1c(-c2cccc(C#N)c2)nn2ccc(C(=O)NCC(C)(C)O)nc12 [Example 12.5, 2-(3-Cyanophenyl)-N-(2-hydroxy-2-methyl-propyl)-3-(2-methylpyrazol-3-yl)pyrazolo[1,5-a]pyrimidine-5-carboxamide]
23 | 102 | 2430 | 492 |  | Fc1cccc(-c2cc3nc(NCc4nc5ccccc5[nH]4)ccn3n2)c1 [Example 66.3, N-(1H-Benzimidazol-2-ylmethyl)-2-(3-fluorophenyl)pyrazolo[1,5-a]pyrimidin-5-amine]
24 | 307 | 1 | 11.1 |  | Cc1cc(-c2c(-c3cccc(C#N)c3)nn3ccc(NS(N)(=O)=O)nc23)cc(Cl)n1 [Example 93, 3-(2-chloro-6-methyl-4-pyridyl)-2-(3-cyanophenyl)-5-(sulfamoylamino)pyrazolo[1,5-a]pyrimidine]
25 |  | 2370 | 43.1 | > 1000 | N#Cc1c(-c2ccco2)nn2ccc(N3CCN(c4ccccc4)CC3)nc12 [Example 55, 2-(2-Furyl)-5-(4-phenylpiperazin-1-yl)pyrazolo[1,5-a]pyrimidine-3-carbonitrile]
26 | 95 | 239 | 147 |  | N#Cc1cccc(-c2nn3ccc(N)nc3c2-c2cn[nH]c2)c1 [Example 1.1]
27 |  | 119 | 4.1 | > 1000 | Cc1cc(-c2c(-c3cccc(C#N)c3)nn3ccc(C(=O)N[C@H]4CCCNC4)nc23)cc(Cl)n1 [Example 7.4, 3-(2-Chloro-6-methyl-4-pyridyl)-2-(3-cyanophenyl)-N-[(3S)-3-piperidyl]pyrazolo[1,5-a]pyrimidine-5-carboxamide]
28 | 725 | 792 | 27.4 |  | CC(C)(O)CNC(=O)c1ccn2nc(-c3cccc(C#N)c3)c(-c3cncs3)c2n1 [Example 12.7, 2-(3-Cyanophenyl)-N-(2-hydroxy-2-methyl-propyl)-3-thiazol-5-yl-pyrazolo[1,5-a]pyrimidine-5-carboxamide]
